Read-outs that look alike come from different tables or passages of the source.
Experiments:
[1] = system: ovariectomized female rats; test: Lordosis behavior test (lordosis quotient) in ovariectomized female rats; type: in vivo, rat
Method: Thus, lordosis was selected as an indicator of restoration of female sexual function in ovariectomized female rats and an appropriate indicator for alleviating symptoms of female sexual dysfunction.
Adult female Sprague Dawley rats (220-250 g) from Charles River Hungary Ltd., Godollo, Hungary, were used. Animals were kept in community cages (4 animals/cage) in a climate-controlled room (23±2° C., 50-60% humidity), with a 14 hour light, 10 hour dark cycle of artificial lighting, using reversed light/dark cycle. Food and water were available ad libitum.
After a minimum five-day acclimatization period, animals were ovariectomized under ether anesthesia, then were left to recover for 3 weeks before testing (reconvalescence). All animals were treated in accordance with the guidelines of the European Communities Council Directive (86/609/EEC) and studies were permitted by the Institutional Animal Care Commission.
Estradiol benzoate and progesterone were obtained from Sigma Chemical Co. Inc., Budapest, Hungary. […] E2-CDS as a 3% complex with HPβCD (E2-CDS-CD) was dissolved in distilled water and diluted with 27% HPβCD solution. E2-CDS-CD was synthesized by Alchem Laboratories Corporation, Alachua, Fla., US.
(§1) After recovery from surgery, ovariectomized female rats were divided into four groups and treated once a day for five days intravenously, via a bolus injection through the tail vein, as follows: (1) control, 27% HPβCD solution; (2) 0.003 mg/kg E2-CDS dissolved in 27% HPβCD solution; (3) 0.01 mg/kg E2-CDS dissolved in 27% HPβCD solution; and (4) 0.03 mg/kg E2-CDS dissolved in 27% HPβCD solution. A minimal number of ovariectomized (8 to 12) females were used per group. Intravenous treatments either with E2-CDS or HPβCD (controls) were carried out daily for 5 days beginning 2 days prior to the first day of behavior observations, in a volume of 0.05 ml/100 g body weight.
The behavior test was conducted in a plexiglass observation cage during the dark cycle. During behavioral observations, only a dim red light was on.
An experienced and active male rat was placed in the arena 5 minutes prior to the female. […] The lordosis quotient (LQ) expresses the estrogen effect on sexual receptivity and was calculated as follows: LQ=100×number of lordoses/10 mounts The observation of the sexual behavior of each female was carried out, in the case of E2-CDS, every day for 22 days; in the case of EB, investigations were carried out every day for 10 days. […] Citrated blood samples were taken by retro-orbital sinus puncture under light ether anesthesia. The samples were stored at 4° C. for one hour, then centrifuged at 1000 g for 10 minutes. Plasma was separated and stored at −80° C. until assayed. Plasma LH concentrations from individual samples were measured by double antibody radioimmunoassay kits obtained from Amersham Pharmacia Biotech, Rome, Italy. […] The limit of detection was 15 pg/ml.
Behavioral changes were analyzed using the Mann-Whitney U test (Siegel, Nonparametric Statistics for the Behavioral Sciences, New York; McGraw-Hill Book Company, Inc., 1956). The Fisher exact test was used for percentage comparisons (Zar, Biostatistical Analysis, Prentice Hall, Inc., Englewood Cliffs, N.J., 1974). Serum LH data were analyzed for each time and treatment group by analysis of variance (ANOVA) followed by Bonferroni posthoc test.

castrated male rats = settings: cited from earlier work
LH = test: Plasma LH by radioimmunoassay in ovariectomized female rats; type: in vivo, rat; settings: 0.003, 0.01 and 0.03 mg/kg i.v. daily for 5 days
Method: as §1
An experienced and active male rat was placed in the arena 5 minutes prior to the female. […] The lordosis quotient (LQ) expresses the estrogen effect on sexual receptivity and was calculated as follows: LQ=100×number of lordoses/10 mounts The observation of the sexual behavior of each female was carried out, in the case of E2-CDS, every day for 22 days; in the case of EB, investigations were carried out every day for 10 days. […] Citrated blood samples were taken by retro-orbital sinus puncture under light ether anesthesia. […] Plasma LH concentrations from individual samples were measured by double antibody radioimmunoassay kits obtained from Amersham Pharmacia Biotech, Rome, Italy. […]

[2] = estradiol itself, postmenopausal volunteer; cited from earlier work
[3] = cited from earlier work
[4] = 0.01 mg/kg i.v. once a day for 5 days
[5] = 0.03 mg/kg i.v. once a day for 5 days

C[C@]12CC[C@@H]3c4ccc(OC(=O)c5ccccc5)cc4CC[C@H]3[C@@H]1CC[C@@H]2O [estradiol benzoate]
lordosis quotient, effect ([1]; 0.003 mg/kg i.v. once a day for 5 days): slightly enhanced the lordosis quotient, but these effects were not statistically significant | LQ increase compared to E2-CDS [1, 4]: about 3 times less | lordosis quotient LQ, effect [1, 4]: slightly increased the LQ from day 3 to day 10 | statistical significance of LQ increase [1, 4]: not statistically significant | LQ value relative to E2-CDS [1, 5]: about three times lower | duration of LQ enhancement [1, 5]: from day 3 to day 8 | lordosis quotient LQ, effect [1, 5]: significantly enhanced | masculine sexual behavior (castrated male rats; 10 μg/day systemically for 9 to 11 days (Pfaff 1970)): increased mounting, intromissions and ano-genital sniffing and reduced mounting latency | ejaculations (castrated male rats; 100 μg/day for 24 to 28 days (Sodersten 1973)): less affected by estradiol benzoate then by testosterone propionate | mounts and intromissions (castrated male rats; 100 μg/day for 24 to 28 days, rats castrated 6 weeks previously (Sodersten 1973)): equivalent to those observed following similar treatment with testosterone propionate | plasma LH levels, effect (LH): none of the tested dosages of estradiol benzoate gave statistically significant LH suppression

C[C@]12CC[C@@H]3c4ccc(O)cc4CC[C@H]3[C@@H]1CC[C@@H]2O [estradiol]
initial serum estradiol level [2]: too high to calculate with the standard curve

C[C@]12CC[C@H]3[C@@H](CCC4=CC(=O)CC[C@@]43C)[C@@H]1CC[C@@H]2O [testosterone]
estradiol formed (of recovered steroids) ([3]; amygdala (Michael 1986)): 64% | estradiol formed (of recovered steroids) ([3]; hypothalamus (Michael 1986)): 61% | radioactivity reported to be estradiol ([3]; hypothalamus, preoptic area and amygdala (Bonsall 1983)): ≥ 50% | estradiol formed (of recovered steroids) ([3]; preoptic area (Michael 1986)): 43%

From US20050059645A1, “Methods for the treatment of male and female sexual dysfunction” (priority 2003, published 2005)
